Results taken from US8987193B2, “Nisin derivatives and the use thereof” (University College Cork—National University of Ireland, Cork, priority 2008, dated 2015).
“Also recorded” adds a separate entry of the source. Ends that are not written are not given here.

Experiments:
[1] = system: Listeria monocytogenes N3008; experiment: Deferred antagonism assay; assay type: cell-based; set-up: key: −, no inhibition; (+), clear zone directly above the colony; +, 1-5 mm zone; ++, 6-10 mm zone; +++, <10 mm zone; details: nisin strain; L. monocytogenes N3008
Procedure: (§1) Deferred antagonism assays were performed by replicating strains on GM17 or GM17 x-gal agar plates and allowing them to grow overnight before overlaying with either GM17/BHI/TS/MH agar (0.75% w/v agar) seeded with the appropriate indicator strain. Zone size was calculated as the diameter of the zone of clearing minus the diameter of bacterial growth (5 mm) For higher throughput screening of N20PXX, XM21VX, XXK22T and XXX banks deferred antagonism assays were performed by replicating strains using a 96 pin replicator (Boekel) or spotting 5 μl of a fresh overnight culture on GM17 agar plates and allowing them to grow overnight. […] Additional sets of indicators were employed to further assess/reassess the bioactivity of a number of strains. […] For well-diffusion assays molten agar was cooled to 48° C. and seeded with the appropriate indicator strain. The inoculated medium was rapidly transferred into sterile Petri plates in 50 ml volumes, allowed to solidify and dried. Wells (4.6 mm in diameter) were then made in the seeded plates. Purified nisin and mutant nisins were resuspended in 0.005% acetic acid, serially diluted, 50 μl volumes were dispensed into the aforementioned wells and the plates incubated at 37° C. overnight. Bioactivity was expressed as arbitrary units/ml (AU/ml) and calculated as the reciprocal of the highest dilution that gave a definite zone multiplied by the conversion factor (i.e. 20 when 50 μl was used) (Ryan et al., 1996).

[2] = system: Listeria monocytogenes 33233; experiment: Deferred antagonism assay; assay type: cell-based; set-up: key: −, no inhibition; (+), clear zone directly above the colony; +, 1-5 mm zone; ++, 6-10 mm zone; +++, <10 mm zone; details: nisin strain; L. monocytogenes 33233
Procedure: as §1

[3] = system: Listeria monocytogenes SLCC 7194; experiment: Deferred antagonism assay; assay type: cell-based; set-up: key: −, no inhibition; (+), clear zone directly above the colony; +, 1-5 mm zone; ++, 6-10 mm zone; +++, <10 mm zone; details: nisin strain; L. monocytogenes SLCC 7194
Procedure: as §1

[4] = system: Listeria monocytogenes 33008; experiment: Deferred antagonism assay; assay type: cell-based; set-up: key: −, no inhibition; (+), clear zone directly above the colony; +, 1-5 mm zone; ++, 6-10 mm zone; +++, <10 mm zone; details: nisin strain; L. monocytogenes 33008
Procedure: as §1

[5] = system: Listeria monocytogenes 33083; experiment: Deferred antagonism assay; assay type: cell-based; set-up: key: −, no inhibition; (+), clear zone directly above the colony; +, 1-5 mm zone; ++, 6-10 mm zone; +++, <10 mm zone; details: nisin strain; L. monocytogenes 33083
Procedure: as §1

[6] = system: Listeria monocytogenes 33226; experiment: Deferred antagonism assay; assay type: cell-based; set-up: key: −, no inhibition; (+), clear zone directly above the colony; +, 1-5 mm zone; ++, 6-10 mm zone; +++, <10 mm zone; details: nisin strain; L. monocytogenes 33226
Procedure: as §1

[7] = system: Listeria monocytogenes 33115; experiment: Deferred antagonism assay; assay type: cell-based; set-up: key: −, no inhibition; (+), clear zone directly above the colony; +, 1-5 mm zone; ++, 6-10 mm zone; +++, <10 mm zone; details: nisin strain; L. monocytogenes 33115
Procedure: as §1

indicator strains = experiment: Deferred antagonism assays, various indicator strains (summary); assay type: cell-based; details: for Strain(s) against which the derivative (producing strain) displays enhanced bioactivity: relative to nisin A-producing control, value = strains listed
Method in brief: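 Producer strains were replicated on GM17 or GM17 x-gal agar, grown overnight, then overlaid with GM17, BHI, TS or MH soft agar (0.75% w/v) seeded with the indicator strain. Zone size was taken as the clearing diameter minus the diameter of bacterial growth (5 mm).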

L. monocytogenes EGDe = experiment: Deferred antagonism assay; assay type: cell-based; set-up: key: −, no inhibition; (+), clear zone directly above the colony; +, 1-5 mm zone; ++, 6-10 mm zone; +++; details: nisin strain; Listeria monocytogenes EDGe
Procedure: as §1

[8] = system: 30 L. monocytogenes and 3 L. innocua strains; experiment: Deferred antagonism assay, collection of Listeria strains; assay type: cell-based; details: of 30 L. monocytogenes and 3 L. innocua strains
Procedure: as §1

L. monocytogenes CBC3 = experiment: Deferred antagonism assay; assay type: cell-based, Listeria monocytogenes; set-up: key: + = Enhanced bioactivity relative to control; − = Bioactivity equal to or less than control; NA = no activity evident; details: producing strain; L. mono CBC3
Method in brief: (§2)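 L. lactis NZ9800 strains expressing nisin A hinge variants were replicated or spotted on GM17 agar, grown overnight, then overlaid with 0.75% w/v agar seeded with indicator. Zone size is the clearing diameter minus 5 mm colony growth.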

L. monocytogenes CBC1 = experiment: Deferred antagonism assay; assay type: cell-based, Listeria monocytogenes; set-up: key: + = Enhanced bioactivity relative to control; − = Bioactivity equal to or less than control; NA = no activity evident; details: producing strain; L. mono CBC1
Method in brief: as §2

L. monocytogenes CBC2 = experiment: Deferred antagonism assay; assay type: cell-based, Listeria monocytogenes; set-up: key: + = Enhanced bioactivity relative to control; − = Bioactivity equal to or less than control; NA = no activity evident; details: producing strain; L. mono CBC2
Method in brief: as §2

L. lactis CBC7 = experiment: Deferred antagonism assay; assay type: cell-based; set-up: key: + = Enhanced bioactivity relative to control; − = Bioactivity equal to or less than control; NA = no activity evident; details: producing strain
Method in brief: as §2

S. aureus CBC4 = experiment: Deferred antagonism assay; assay type: cell-based; set-up: key: + = Enhanced bioactivity relative to control; − = Bioactivity equal to or less than control; NA = no activity evident; details: producing strain
Method in brief: as §2

L. lactis CBC8 = experiment: Deferred antagonism assay; assay type: cell-based; set-up: key: + = Enhanced bioactivity relative to control; − = Bioactivity equal to or less than control; NA = no activity evident; details: producing strain
Method in brief: as §2

## NisinA K22A (ITSISLCTPGCKTGALMGCNMATATCHCSIHVSK; not fully specified; also: lantibiotic: lanthionine rings and dehydro residues not placed; UniProt P13068 24-57, looked up, variant K22A) [nisin A derivative, hinge substitution K22A]
[1]
  Activity score (zone): + (+, 1-5 mm zone)
[2]
  Activity score (zone): + (+, 1-5 mm zone)
[3]
  Activity score (zone): + (+, 1-5 mm zone)
[4]
  Activity score (zone): −
[5]
  Activity score (zone): + (+, 1-5 mm zone)
[6]
  Activity score (zone): + (+, 1-5 mm zone)
[7]
  Activity score (zone): + (+, 1-5 mm zone)
Indicator strains
  Strain(s) against which the derivative (producing strain) displays enhanced bioactivity: L. monocytogenes K22A and L. lactis CBC8; also recorded: L. lactis CBC8 and L. monocytogenes CBC2 , and an additional 13 L. monocytogenes and 3 L. innocua; also recorded: additional 13 L. monocytogenes and 3 L. innocua, S. aureus; also recorded: ST528 and DPC5425, Strep. agalactiae ATCC 13813
L. monocytogenes EGDe
  Activity score (zone): + (+, 1-5 mm zone)
[8]
  number of strains with enhanced bioactivity (relative to the control): 16
  number of strains with equal levels of bioactivity: 17
L. monocytogenes CBC3
  Bioactivity relative to control: −
L. monocytogenes CBC1
  Bioactivity relative to control: −
L. monocytogenes CBC2
  Bioactivity relative to control: +
L. lactis CBC7
  Bioactivity relative to control: −
S. aureus CBC4
  Bioactivity relative to control: −
L. lactis CBC8
  Bioactivity relative to control: +

## NisinA M21G (ITSISLCTPGCKTGALMGCNGKTATCHCSIHVSK; not fully specified; also: lantibiotic: lanthionine rings and dehydro residues not placed; UniProt P13068 24-57, looked up, variant M21G) [nisin A derivative, hinge substitution M21G]
[1]
  Activity score (zone): −
[2]
  Activity score (zone): −
[3]
  Activity score (zone): −
[4]
  Activity score (zone): −
[5]
  Activity score (zone): −
[6]
  Activity score (zone): −
[7]
  Activity score (zone): −
Indicator strains; Staph. aureus ST528, DPC5245 and Strep. agalactiae ATCC 13813 taken together
  relative bioactivity against the indicators of Table 6: approximately 120%
Indicator strains
  Strain(s) against which the derivative (producing strain) displays enhanced bioactivity: L. monocytogenes CBC2, Staph. aureus CBC4 and C. sporogenes CBC5; also recorded: L. monocytogenes CBC2 , S. aureus CBC4, ST528 , and DPC5425, Strep. agalactiae ATCC 13813, C. sporogenes CBC5 + an additional 7 L. monocytogenes and 3 L. innocua
L. monocytogenes EGDe
  Activity score (zone): −
[8]
  number of strains with enhanced bioactivity (relative to the control): 10
  number of strains with equal levels of bioactivity: 19
  number of strains with reduced activity: 4
L. monocytogenes CBC3
  Bioactivity relative to control: −
L. monocytogenes CBC1
  Bioactivity relative to control: −
L. monocytogenes CBC2
  Bioactivity relative to control: +
L. lactis CBC7
  Bioactivity relative to control: −
S. aureus CBC4
  Bioactivity relative to control: +
L. lactis CBC8
  Bioactivity relative to control: −

## NisinA M21I (ITSISLCTPGCKTGALMGCNIKTATCHCSIHVSK; not fully specified; also: lantibiotic: lanthionine rings and dehydro residues not placed; UniProt P13068 24-57, looked up, variant M21I) [nisin A derivative, hinge substitution M21I]
[1]
  Activity score (zone): + (+, 1-5 mm zone)
[2]
  Activity score (zone): + (+, 1-5 mm zone)
[3]
  Activity score (zone): + (+, 1-5 mm zone)
[4]
  Activity score (zone): −
[5]
  Activity score (zone): + (+, 1-5 mm zone)
[6]
  Activity score (zone): + (+, 1-5 mm zone)
[7]
  Activity score (zone): −
Indicator strains
  Strain(s) against which the derivative (producing strain) displays enhanced bioactivity: L. momocytogenes CBC2, Staph. aureus CBC4, C. sporogenes CBC5, L. lactis CBC7 and CBC8; also recorded: L. monocytogenes CBC2, S. aureus CBC4, C. sporogenes CBC5, L. lactis CBC7 and an additional 15 L. monocytogenes and 2 L. innocua
L. monocytogenes EGDe
  Activity score (zone): + (+, 1-5 mm zone)
[8]
  number of strains with enhanced bioactivity (relative to the control): 17
  number of strains with equal levels of bioactivity: 15
  number of strains with reduced activity: 1
L. monocytogenes CBC3
  Bioactivity relative to control: −
L. monocytogenes CBC1
  Bioactivity relative to control: −
L. monocytogenes CBC2
  Bioactivity relative to control: +
L. lactis CBC7
  Bioactivity relative to control: +
S. aureus CBC4
  Bioactivity relative to control: +
L. lactis CBC8
  Bioactivity relative to control: +

## NisinA M21S (ITSISLCTPGCKTGALMGCNSKTATCHCSIHVSK; not fully specified; also: lantibiotic nisin: dehydrated residues and thioether rings not placed; UniProt P13068 24-57, looked up, variant M21S) [nisin A derivative, hinge substitution M21S]
[1]
  Activity score (zone): ++ (++, 6-10 mm zone)
[2]
  Activity score (zone): + (+, 1-5 mm zone)
[3]
  Activity score (zone): + (+, 1-5 mm zone)
[4]
  Activity score (zone): + (+, 1-5 mm zone)
[5]
  Activity score (zone): + (+, 1-5 mm zone)
[6]
  Activity score (zone): + (+, 1-5 mm zone)
[7]
  Activity score (zone): (+)
Indicator strains
  Strain(s) against which the derivative (producing strain) displays enhanced bioactivity: L. monocytogenes CBC2 , CBC3, Staph. aureus CBC4, C. sporogenes CBC5 and L. lactis CBC8; also recorded: L. monocytogenes CBC2 , CBC3, S. aureus CBC4, C. sporogenes CBC5, L. lactis CBC8 and an additional 23 L. monocytogenes strains and 3 L. innocua
L. monocytogenes EGDe
  Activity score (zone): ++ (++, 6-10 mm zone)
[8]
  number of strains with enhanced bioactivity (relative to the control): 26
  number of strains with equal levels of bioactivity: 7
L. monocytogenes CBC3
  Bioactivity relative to control: +
L. monocytogenes CBC1
  Bioactivity relative to control: −
L. monocytogenes CBC2
  Bioactivity relative to control: +
L. lactis CBC7
  Bioactivity relative to control: −
S. aureus CBC4
  Bioactivity relative to control: +
L. lactis CBC8
  Bioactivity relative to control: +
